Experimental data: US20020137929A1, “1 - (3-heterocyclylphenyl) isothiourea, -isourea, -guanidine and -amidine herbicidal agents” (Intellectual Property Department, BASF Aktiengesellschaft, priority 1998, published 2002)

Legend:
[1] = tested on: CHEAL (Lambsquarters, Common); test: Postemergence herbicidal evaluation; type: in vivo, Chenopodium album
Procedure, shortened: (§1)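 Herbicidal effect was judged by eye on a 0–9 scale covering stand, vigor, deformity, size and chlorosis, compared with controls, four to five weeks after seedlings about two weeks old were sprayed (40 psi, ~0.0156–0.500 kg/ha).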

[2] = tested on: CASOB (Sicklepod); test: Postemergence herbicidal evaluation; type: in vivo, Cassia obtusifolia
Procedure, shortened: as §1

[3] = tested on: GALAP (Galium); test: Postemergence herbicidal evaluation; type: in vivo, Galium aparine
Procedure, shortened: as §1

[4] = tested on: MOOVA (Monochoria); test: Preemergence weed control under flooded paddy conditions; type: in vivo, Monochoria vaginalis; conditions: rated 3-4 weeks after treatment
Procedure, shortened: (§2)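 Seeds or propagules sown in silt loam kept flooded 1.5-3 cm; compounds in 50/50 acetone/water pipetted into flood water at about 0.0313 to 0.500 kg/ha. Greenhouse; visual 0-9 rating versus untreated control 3-4 weeks after treatment.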

[5] = tested on: ORYSAT (Rice, Tebonnet); test: Postemergence herbicidal evaluation; type: in vivo, Oryza sativa, (L.) Tebonnet
Procedure, shortened: as §1

[6] = tested on: SAGPY (Arrowhead (Pygmaea)); test: Postemergence weed control under flooded paddy conditions; type: in vivo, Sagittaria pygmaea; conditions: postemergence weeds, 3-4 weeks after treatment
Procedure, shortened: (§3)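 Weeds 3 to 5 cm tall and rice seedlings at the 1.5 to 2.5 leaf stage were flooded, with water held 1.5 to 3 cm above the soil. Compounds in 50/50 v/v aqueous/acetone went into the flood water at about 0.0313 to 0.500 kg/ha. Visual 0-9 ratings versus control were made 3 to 4 weeks later.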

[7] = tested on: GLXMAW (Soybean, Williams); test: Preemergence herbicidal evaluation; type: in vivo, Glycine max, (L.) Merr. cv Williams; conditions: rated 4-5 weeks after treatment
Procedure, shortened: (§4)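 Greenhouse preemergence test: seed-soil mix sown on ~1 inch soil; aqueous acetone spray at equivalent of ~0.0156–0.500 kg/ha; greenhouse-held and watered; scored 0–9 visually at 4–5 weeks.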

[8] = tested on: CYPSE (Flatsedge); test: Preemergence weed control under flooded paddy conditions; type: in vivo, Cyperus serotinus; conditions: rated 3-4 weeks after treatment
Procedure, shortened: as §2

[9] = tested on: AMBEL (Ragweed, Common); test: Preemergence herbicidal evaluation; type: in vivo, Ambrosia artemisifolia; conditions: rated 4-5 weeks after treatment
Procedure, shortened: as §4

[10] = tested on: CYPSE (Flatsedge); test: Postemergence weed control under flooded paddy conditions; type: in vivo, Cyperus serotinus; conditions: postemergence weeds, 3-4 weeks after treatment
Procedure, shortened: as §3

[11] = tested on: ORYSAT (Rice, Tebonnet); test: Preemergence herbicidal evaluation; type: in vivo, Oryza sativa, (L.) Tebonnet; conditions: rated 4-5 weeks after treatment
Procedure, shortened: as §4

[12] = tested on: SETVI (Foxtail, Green); test: Preemergence herbicidal evaluation; type: in vivo, Setaria viridis; conditions: rated 4-5 weeks after treatment
Procedure, shortened: as §4

[13] = tested on: CYPIR (Rice Flatsedge); test: Postemergence weed control under flooded paddy conditions; type: in vivo, Cyperus iria; conditions: postemergence weeds, 3-4 weeks after treatment
Procedure, shortened: as §3

[14] = tested on: ZEAMX (Corn, Field); test: Postemergence herbicidal evaluation; type: in vivo, Zea mays
Procedure, shortened: as §1

Cn1c(C(F)(F)F)cc(=O)n(-c2cc(N=C3SCC(=O)N3CC(=O)OC(C)(C)C)c(Cl)cc2F)c1=O [Compound 43, tert-Butyl 2-{{2-chloro-5-[3,6-dihydro-3-methyl-2,6-dioxo-4-(trifluoromethyl)-1(2H)-pyrimidinyl]-4-fluorophenyl}imino}-4-oxo-3-thiazolidineacetate]
5.0: Postemergence herbicidal rating CHEAL ([1]; Rate 0.0158 kg/ha) | Herbicidal rating CYPSE ([8]; 0.0313 kg/ha) | Herbicidal rating CYPSE ([8]; 0.0625 kg/ha) | Herbicidal rating CYPSE ([10]; rate 0.0313 kg/ha) | Preemergence herbicidal rating SETVI ([12]; rate 0.1250 kg/ha) | Herbicidal rating CYPIR ([13]; rate 0.2500 kg/ha) | Postemergence herbicidal rating ZEAMX ([14]; Rate 0.0315 kg/ha)
7.0: Herbicidal rating SAGPY ([6]; rate 0.0313 kg/ha) | Herbicidal rating SAGPY ([6]; rate 0.0825 kg/ha) | Herbicidal rating SAGPY ([6]; rate 0.1250 kg/ha)
3.0: Postemergence herbicidal rating ORYSAT ([5]; Rate 0.0630 kg/ha) | Preemergence herbicidal rating AMBEL ([9]; rate 0.1250 kg/ha)
8.0: Herbicidal rating CYPSE ([8]; 0.1250 kg/ha) | Herbicidal rating CYPSE ([10]; rate 0.1250 kg/ha)
9.0: Postemergence herbicidal rating CHEAL ([1]; Rate 0.0315 kg/ha) | Postemergence herbicidal rating CHEAL ([1]; Rate 0.0630 kg/ha) | Postemergence herbicidal rating CASOB ([2]; Rate 0.0158 kg/ha) | Postemergence herbicidal rating CASOB ([2]; Rate 0.0315 kg/ha) | Postemergence herbicidal rating CASOB ([2]; Rate 0.0630 kg/ha) | Herbicidal rating MOOVA ([4]; 0.0313 kg/ha) | Herbicidal rating MOOVA ([4]; 0.0625 kg/ha) | Herbicidal rating MOOVA ([4]; 0.1250 kg/ha) | Herbicidal rating MOOVA ([4]; 0.2500 kg/ha) | Herbicidal rating SAGPY ([6]; rate 0.2500 kg/ha) | Herbicidal rating CYPSE ([8]; 0.2500 kg/ha) | Herbicidal rating CYPSE ([10]; rate 0.2500 kg/ha) | Preemergence herbicidal rating SETVI ([12]; rate 0.2500 kg/ha)
5.5: Postemergence herbicidal rating ZEAMX ([14]; Rate 0.0630 kg/ha)
0.0: Postemergence herbicidal rating GALAP ([3]; Rate 0.0158 kg/ha) | Preemergence herbicidal rating GLXMAW ([7]; rate 0.0156 kg/ha) | Preemergence herbicidal rating GLXMAW ([7]; rate 0.0313 kg/ha) | Preemergence herbicidal rating GLXMAW ([7]; rate 0.0625 kg/ha) | Preemergence herbicidal rating GLXMAW ([7]; rate 0.1250 kg/ha) | Preemergence herbicidal rating AMBEL ([9]; rate 0.0156 kg/ha) | Preemergence herbicidal rating AMBEL ([9]; rate 0.0313 kg/ha) | Preemergence herbicidal rating AMBEL ([9]; rate 0.0625 kg/ha) | Preemergence herbicidal rating ORYSAT ([11]; rate 0.0156 kg/ha) | Preemergence herbicidal rating ORYSAT ([11]; rate 0.0313 kg/ha) | Preemergence herbicidal rating ORYSAT ([11]; rate 0.0625 kg/ha) | Preemergence herbicidal rating ORYSAT ([11]; rate 0.1250 kg/ha) | Preemergence herbicidal rating ORYSAT ([11]; rate 0.2500 kg/ha) | Preemergence herbicidal rating SETVI ([12]; rate 0.0156 kg/ha) | Preemergence herbicidal rating SETVI ([12]; rate 0.0313 kg/ha) | Preemergence herbicidal rating SETVI ([12]; rate 0.0625 kg/ha) | Herbicidal rating CYPIR ([13]; rate 0.0313 kg/ha)
4.0: Postemergence herbicidal rating GALAP ([3]; Rate 0.0315 kg/ha) | Postemergence herbicidal rating GALAP ([3]; Rate 0.0630 kg/ha) | Preemergence herbicidal rating AMBEL ([9]; rate 0.2500 kg/ha) | Herbicidal rating CYPIR ([13]; rate 0.1250 kg/ha)
1.0: Postemergence herbicidal rating ORYSAT ([5]; Rate 0.0158 kg/ha)
2.0: Postemergence herbicidal rating ORYSAT ([5]; Rate 0.0315 kg/ha) | Preemergence herbicidal rating GLXMAW ([7]; rate 0.2500 kg/ha)
4.5: Postemergence herbicidal rating ZEAMX ([14]; Rate 0.0158 kg/ha)

CCOC(=O)CN1C(=O)CS(=O)(=O)C1=Nc1cc(-n2c(=O)cc(C(F)(F)F)n(C)c2=O)c(F)cc1Cl [Compound 46, 2-{{2-Chloro-5-[3,6-dihydro-3-methyl-2,6-dioxo-4-(trifluoromethyl)-1(2H)-pyrimidinyl]-4-fluoro-phenyl}imino}-4-oxo-3-thiazolidineacetic acid, ethyl ester, 1,1-dioxide]
4.0: Herbicidal rating MOOVA ([4]; 0.0625 kg/ha)
1.0: Postemergence herbicidal rating ORYSAT ([5]; Rate 0.0313 kg/ha) | Preemergence herbicidal rating AMBEL ([9]; rate 0.1250 kg/ha) | Preemergence herbicidal rating AMBEL ([9]; rate 0.2500 kg/ha)
5.0: Postemergence herbicidal rating ZEAMX ([14]; Rate 0.0625 kg/ha)
1.5: Postemergence herbicidal rating ORYSAT ([5]; Rate 0.0625 kg/ha)
7.0: Herbicidal rating MOOVA ([4]; 0.2500 kg/ha)
4.5: Postemergence herbicidal rating ZEAMX ([14]; Rate 0.0313 kg/ha)
6.0: Herbicidal rating MOOVA ([4]; 0.1250 kg/ha) | Herbicidal rating CYPSE ([8]; 0.2500 kg/ha) | Herbicidal rating CYPSE ([10]; rate 0.2500 kg/ha)
3.0: Herbicidal rating MOOVA ([4]; 0.0313 kg/ha) | Herbicidal rating SAGPY ([6]; rate 0.2500 kg/ha)
0.0: Postemergence herbicidal rating CHEAL ([1]; Rate 0.0313 kg/ha) | Postemergence herbicidal rating CHEAL ([1]; Rate 0.0625 kg/ha) | Postemergence herbicidal rating CASOB ([2]; Rate 0.0313 kg/ha) | Postemergence herbicidal rating CASOB ([2]; Rate 0.0625 kg/ha) | Postemergence herbicidal rating GALAP ([3]; Rate 0.0313 kg/ha) | Postemergence herbicidal rating GALAP ([3]; Rate 0.0625 kg/ha) | Herbicidal rating SAGPY ([6]; rate 0.0313 kg/ha) | Herbicidal rating SAGPY ([6]; rate 0.0625 kg/ha) | Herbicidal rating SAGPY ([6]; rate 0.1250 kg/ha) | Preemergence herbicidal rating GLXMAW ([7]; rate 0.1250 kg/ha) | Preemergence herbicidal rating GLXMAW ([7]; rate 0.2500 kg/ha) | Herbicidal rating CYPSE ([8]; 0.0313 kg/ha) | Herbicidal rating CYPSE ([8]; 0.0625 kg/ha) | Herbicidal rating CYPSE ([8]; 0.1250 kg/ha) | Herbicidal rating CYPSE ([10]; rate 0.0313 kg/ha) | Herbicidal rating CYPSE ([10]; rate 0.0625 kg/ha) | Herbicidal rating CYPSE ([10]; rate 0.1250 kg/ha) | Preemergence herbicidal rating ORYSAT ([11]; rate 0.1250 kg/ha) | Preemergence herbicidal rating ORYSAT ([11]; rate 0.2500 kg/ha) | Preemergence herbicidal rating SETVI ([12]; rate 0.1250 kg/ha) | Preemergence herbicidal rating SETVI ([12]; rate 0.2500 kg/ha) | Herbicidal rating CYPIR ([13]; rate 0.0313 kg/ha) | Herbicidal rating CYPIR ([13]; rate 0.0625 kg/ha) | Herbicidal rating CYPIR ([13]; rate 0.1250 kg/ha) | Herbicidal rating CYPIR ([13]; rate 0.2500 kg/ha)
